Legend:
Format in all cases: cell-based, mouse
[1] = system: IRS-2 mRNA; assay: IRS-2 mRNA expression (Northern blots) in differentiated 3T3-L1 adipocytes; conditions: for effect on IRS-2 gene expression: FIG. 2: 10 μM darglitazone with 100 nM insulin, 10 μM WY14643 with or without insulin, 100 nM progesterone, 200 μM 8-BrcAMP
Method: (§1) 3T3-L1 fibroblasts were grown and differentiated into adipocytes according to Rubin et al., 1977). At least 90% of the cells had acquired the adipocyte phenotype 6 days after initiating differentiation. Eight days after differentiation, the medium was changed and the various agents added for the times indicated in the Results.
(§2) Total cellular RNA was isolated from cells with guanidinium thiocyanate, as described (Chirgwin et al. 1979). Northern blot analyses were performed on total cellular RNA (30 μg) with labeled cDNA probes made against β-actin as housekeeping gene, mouse IRS-1 (bp 1333-2335) and mouse IRS-2 (bp 2987-3325) (kindly provided by Drs. J. Pierce and L-M Wang, NCI, NIH), rodent GLUT4 (bp 121-2128, Accession Nr NM 001042, kindly provided by Dr. Sam W. Cushman, NIDDK, NIH) and PKB/Akt using a PCR fragment against PKBβ (bp 282-1130, Accession Nr M95936) in a common sequence for PKBα, PKBβ and PKBγ. 5′ sequence […] and 3′ sequence […] were used as PCR primers (SEQ. ID. NO. 13 and 14, respectively).

[2] = system: PKB/Akt mRNA; assay: PKB/Akt mRNA expression (Northern blots) in differentiated 3T3-L1 adipocytes; conditions: 48 hrs; insulin alone or combined with PPARγ ligand; same experiments as IRS-2
Method: as §1, §2

[3] = system: IRS-1 mRNA; assay: IRS-1 mRNA expression (Northern blots) in differentiated 3T3-L1 adipocytes; conditions: 48 hrs; insulin alone or combined with PPARγ ligand; same experiments as IRS-2
Method: as §1, §2

[4] = system: PKB/Akt protein; assay: PKB/Akt protein expression in differentiated 3T3-L1 cells; conditions: pioglitazone and/or insulin for 48 hrs
Method: (§3) 3T3-L1 fibroblasts were grown and differentiated into adipocytes according to Rubin et al., 1977). At least 90% of the cells had acquired the adipocyte phenotype 6 days after initiating differentiation. Eight days after differentiation, the medium was changed and the various agents added for the times indicated in the Results. Cell lysates were prepared as described by Rondinone et al. 1997. Equal amounts of protein were separated by SDS/PAGE, transferred and immunoblotted with appropriate antibodies against the specific proteins. Phosphotyrosines were immunoblotted with antibody PY99 (Transduction Laboratories, Lexington, N.Y.), GLUT4 with an antibody kindly provided by Dr. Sam W. Cushman (NIDDK, NIH), IRS-1 and IRS-2 with antibodies from Upstate Biotechnology, Inc. (Lake Placid, N.Y.) and PKB/Akt with antibodies from Biolab (Boston, Mass.). Immunoprecipitations were performed as described (Rondinone et at., 1997) and individual proteins were detected by blotting with horseradish peroxidase-linked secondary antibodies and using enhanced chemiluminescence (Nycomed Amersham plc., UK).

[5] = system: IRS-2 protein; assay: IRS-2 protein expression (immunoblot) in differentiated 3T3-L1 cells
Method: as §3

[6] = system: PKB/Akt phosphorylation; assay: Acute insulin-stimulated PKB/Akt phosphorylation (immunoblot) in pre-cultured 3T3-L1 adipocytes; conditions: cells cultured with agent alone for 48 hrs, serum-starved 3 hrs, then 100 nM insulin 10 min
Method: Lysates were prepared from cells that had been cultured for 48 hrs as in FIG. 3A, serum-starved for 3 hrs, and then stimulated with 100 nM insulin for 10 min. Following separation on 7.5% SDS-PAGE, the proteins were immunoblotted with antibodies recognizing insulin-stimulated phosphoserine (PS-PKB) and phosphothreonine (PThr-PKB) PKB/Akt.
To study the acute effect of insulin, the cells were serum-deprived for 3 hrs before adding 100 nM insulin for 15 min.
The present inventor also examined the acute effect of insulin on down-stream activation of PKB/Akt in cells that had been cultured with pioglitazone for 48 hrs, washed and serum-starved for 3 hrs in fresh medium. […] Insulin (100 nM) was then added for 10 min to the serum-starved cells.

[7] = system: IRS-1 protein; assay: IRS-1 protein expression (immunoblot) in differentiated 3T3-L1 cells
Method: as §3

For `CC(=O)[C@H]1CC[C@H]2[C@@H]3CCC4=CC(=O)CC[C@]4(C)[C@H]3CC[C@]12C` [progesterone], the “effect on IRS-2 gene expression” value ([1]; 48 hrs) was “no effects were seen”.
In the case of `Nc1ncnc2c1nc(Br)n2[C@@H]1O[C@@H]2COP(=O)(O)O[C@H]2[C@H]1O` [8-BrcAMP], the “effect on IRS-2 gene expression” value ([1]; 48 hrs) is reported as “no effects were seen”.
`Cc1oc(-c2ccccc2)nc1CCC(=O)c1ccc(CC2SC(=O)NC2=O)cc1` (stereo not drawn) [darglitazone] was tested, and the “gene expression of PKB/Akt” value [2] was “Neither insulin alone nor when combined with the PPARγ ligands, pioglitazone or darglitazone (not shown), altered” and the “gene expression of IRS-1” value [3] was “Neither insulin alone nor when combined with the PPARγ ligands, pioglitazone or darglitazone (not shown), altered”.
For insulin, the PKB/Akt protein expression [4] was “not changed”, the IRS-2 protein expression ([5]; 48 hrs, 10 μM pioglitazone or 100 nM insulin (FIG. 1B bottom)) was “not changed” and the “gene expression of PKB/Akt” value [2] was “Neither insulin alone nor when combined with the PPARγ ligands, pioglitazone or darglitazone (not shown), altered”. The “gene expression of IRS-1” value [3] was “Neither insulin alone nor when combined with the PPARγ ligands, pioglitazone or darglitazone (not shown), altered”, the “acute effect of insulin on PKB/Akt phosphorylation” value [6] was “markedly reduced” and the “further increase of IRS-2 mRNA by addition of insulin to pioglitazone” value ([1]; 100 nM insulin added to 10 μM pioglitazone, 48 hrs (FIG. 1A bottom)) was “no further increase”. For the same compound, the IRS-2 gene expression ([1]; insulin alone (100 nM), 48 hrs) was “did not change”, the “decrease of IRS-1 protein expression” value ([7]; insulin alone, three experiments, range 25-39%) was 33% and the IRS-1 protein expression ([7]; pioglitazone alone or insulin alone, chronic (FIG. 3B bottom)) was “reduced”.
In the case of `CCc1ccc(CCOc2ccc(CC3SC(=O)NC3=O)cc2)nc1` (stereo not drawn) [pioglitazone], the “average increase of IRS-2 protein expression” value ([5]; after 48 hrs) is reported as 36%, the “average increase of IRS-2 mRNA expression” value ([1]; 1 μM, n=2) is reported as 230% and the “increase of IRS-2 mRNA” value ([1]; 10 μM pioglitazone in combination with 100 nM insulin, 48 hrs (FIG. 1A top)) is reported as about 4 fold. The “average increase of IRS-2 mRNA expression” value ([1]; 10 μM, same experiments as 1 μM, n=2) was 292%, the “increase of IRS-2 mRNA levels relative to β-actin mRNA” value ([1]; after 48 hrs, 5 experiments (FIG. 1B top)) was 3-5 fold and the “change of IRS-1 protein expression” value ([7]; insulin and pioglitazone combined, three experiments, range 18-39%) was −31%. The “change of IRS-1 protein expression” value ([7]; pioglitazone alone, three experiments) was “+7%”.
`Cc1cccc(Nc2cc(Cl)nc(SCC(=O)O)n2)c1C` [WY14643] was tested, and the “gene expression of PKB/Akt” value [2] was “no effect was seen”, the “gene expression of IRS-1” value [3] was “no effect was seen” and the “average increase of IRS-2 mRNA expression” value ([1]; 10 μM, n=2, also when insulin was added (FIG. 2 middle)) was 9%. For the same compound, the “effect on IRS-2 gene expression” value ([1]; 48 hrs) was “completely without effect”.

— US6835819B2, “Sequences and their use” (Metcon Medicin AB, priority 2000, dated 2004)
